By pKi is commonly meant −log10 of the Ki, conventionally taken in molar units. By pIC50 is commonly meant −log10 of the IC50, conventionally taken in molar units.

pIC50, pKi: −log10 of the molar value.

Test [1] concerns the target human Adenosine A1 receptor (Homo sapiens (Human), UniProt P30542). Put plainly: Adenosine receptor TR-FRET binding assay (A1). Particulars: inhibition of binding of 100 nM CA200645, CHO cell membranes. The essentials: (§1)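 CHO membranes, Tb-labelled hA1/hA2a/hA2b/hA3; tracer CA200645 at 100 nM (A1, A2a, A3) or 30 nM (A2b); buffer with saponin, 1% DMSO, pluronic; 2 h RT. NSB with 10 μM XAC. Read TR-FRET (ex 337, em 620/665 nm); IC50 → Ki via Cheng–Prusoff.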
Background: TR-FRET usually uses a lanthanide donor and a delayed reading to cut background.

The target of test [2] is human Adenosine A2a receptor (Homo sapiens (Human), UniProt P29274). Put plainly: Adenosine receptor TR-FRET binding assay (A2a). Particulars: inhibition of binding of 100 nM CA200645, CHO cell membranes. A digest of the protocol: as §1
The target in test [3] is human Adenosine A2b receptor (Homo sapiens (Human), UniProt P29275). Put plainly: Adenosine receptor TR-FRET binding assay (A2b). Particulars: TR-FRET, inhibition of binding of 30 nM CA200645, CHO cell membranes. The essentials: as §1
The target of test [4] is human Adenosine A3 receptor (Homo sapiens (Human), UniProt P0DMS8). Put plainly: Adenosine receptor TR-FRET binding assay (A3). Particulars: inhibition of binding of 100 nM CA200645, CHO cell membranes. The essentials: as §1
In another test the test system is human PBMCs. Put plainly: CD3/CD28 stimulated IL-2 release NECA reversal assay in human PBMCs. Particulars: PBMC, 1 uM NECA, 24 hours, IL-2 in culture supernatant. It counts as cell-based. A digest of the protocol:
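PBMCs from citrated healthy-donor blood plated at 50,000 cells/well on 1 ug/ml CD3 antibody with 1 ug/ml CD28 antibody, 1 uM NECA and 0.003-10 μM antagonist (final), 24 h at 37° C. Supernatant IL-2 measured by MSD immunoassay; % inhibition set against no-NECA control wells as 100%.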

In test [5] the test system is CD8+T cells in human whole blood. Put plainly: Measurement of pCREB in CD8+T cells in human whole blood. It counts as cell-based. Particulars: 3 μM NECA, rolipram. A digest of the protocol: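 Heparinised human whole blood pre-incubated 20 min at 37 °C with serially diluted A2a antagonists plus rolipram, then stimulated 60 min with 3 μM NECA (final). After fixation and red-cell lysis, white cells were permeabilized and stained for phospho-CREB and CD8; pCREB in CD8+ T cells measured by flow cytometry.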

Test [6] concerns immature monocyte-derived dendritic cells (MoDC). Put plainly: MoDC pCREB assay. Type of test: cell-based, human. To be noted: Homo sapiens, Dendritic cell; pCREB in immature MoDC, 1 μM NECA, rolipram. The essentials: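 Human CD14+ monocytes differentiated 5 days into immature MoDC, pre-incubated 15 min at 37 °C with antagonist plus rolipram, then stimulated with 1 μM NECA for 45 min at 37 °C. Phospho-CREB measured by flow cytometry in gated CD209+/CD86− low cells; IC50 from the inflection point of a sigmoidal curve.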

Chain of human Adenosine A1 receptor (P30542 whole entry): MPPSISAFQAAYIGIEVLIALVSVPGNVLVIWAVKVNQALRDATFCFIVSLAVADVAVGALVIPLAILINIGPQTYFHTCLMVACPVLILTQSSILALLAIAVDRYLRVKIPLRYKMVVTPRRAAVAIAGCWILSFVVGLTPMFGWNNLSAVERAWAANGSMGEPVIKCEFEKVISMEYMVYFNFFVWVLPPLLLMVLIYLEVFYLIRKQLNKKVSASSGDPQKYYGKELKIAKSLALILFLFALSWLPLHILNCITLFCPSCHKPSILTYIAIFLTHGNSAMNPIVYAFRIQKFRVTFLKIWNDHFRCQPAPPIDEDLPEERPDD
Chain of human Adenosine A2a receptor (P29274 whole entry): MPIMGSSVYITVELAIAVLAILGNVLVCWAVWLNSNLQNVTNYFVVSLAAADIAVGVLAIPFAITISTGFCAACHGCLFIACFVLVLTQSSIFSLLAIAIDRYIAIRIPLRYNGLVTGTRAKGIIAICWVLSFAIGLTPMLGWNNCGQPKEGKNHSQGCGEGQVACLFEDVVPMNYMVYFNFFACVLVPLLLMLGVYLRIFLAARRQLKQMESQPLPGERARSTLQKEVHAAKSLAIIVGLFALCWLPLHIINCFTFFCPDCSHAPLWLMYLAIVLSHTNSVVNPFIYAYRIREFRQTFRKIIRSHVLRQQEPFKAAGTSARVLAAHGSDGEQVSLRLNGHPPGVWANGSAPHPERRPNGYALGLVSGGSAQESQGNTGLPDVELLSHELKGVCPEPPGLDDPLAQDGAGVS
Chain of human Adenosine A3 receptor (P0DMS8 whole entry): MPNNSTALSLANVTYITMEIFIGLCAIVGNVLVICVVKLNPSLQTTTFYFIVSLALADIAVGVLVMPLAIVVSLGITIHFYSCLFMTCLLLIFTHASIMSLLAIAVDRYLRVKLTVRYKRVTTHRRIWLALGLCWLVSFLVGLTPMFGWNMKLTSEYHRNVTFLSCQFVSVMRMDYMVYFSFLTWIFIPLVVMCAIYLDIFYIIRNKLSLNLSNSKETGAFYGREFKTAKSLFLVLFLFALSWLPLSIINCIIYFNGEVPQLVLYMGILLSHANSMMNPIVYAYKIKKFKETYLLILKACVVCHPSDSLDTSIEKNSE
Chain of human Adenosine A2b receptor (P29275 whole entry): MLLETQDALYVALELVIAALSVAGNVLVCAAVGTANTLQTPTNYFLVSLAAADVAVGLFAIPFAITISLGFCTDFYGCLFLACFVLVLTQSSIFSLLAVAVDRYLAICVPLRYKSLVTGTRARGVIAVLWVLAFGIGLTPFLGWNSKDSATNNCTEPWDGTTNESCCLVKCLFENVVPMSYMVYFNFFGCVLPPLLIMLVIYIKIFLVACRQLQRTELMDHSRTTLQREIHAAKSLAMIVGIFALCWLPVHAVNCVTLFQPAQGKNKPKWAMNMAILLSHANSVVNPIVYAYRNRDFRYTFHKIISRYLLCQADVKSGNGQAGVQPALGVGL

As for `Cc1cc(-c2sc(NC(=O)N3CCOC[C@H]3C)nc2-c2cccc(C#N)c2)cc(C)n1` [Example 6.74, (3R)-N-[4-(3-Cyanophenyl)-5-(2,6-dimethyl-4-pyridyl)thiazol-2-yl]-3-methyl-morpholine-4-carboxamide], the pKi in test [1] is 7.64; in test [2], 9.20; in test [3], 8.72; in test [4], 6.66. The values for the pIC50 (in the test on human PBMCs; in test [5]; in test [6]) were 8.25, 6.62 and 9.00, respectively.
For the molecule `Cc1cc(-c2sc(NC(=O)N3CC4(COC4)C3)nc2-c2cccc(C#N)c2)cc(CF)n1` [Example 16.6], the pKi in test [1] is 7.38; in test [2], 9.80; in test [3], 8.80; in test [4], 6.01. Moreover, the negative-log IC50 (pIC50) is 8.59 in the test on human PBMCs, 7.00 in test [5] and 7.89 in test [6].
As to `Cc1cc(-c2sc(NC(=O)N3CC4(C3)CS(=O)(=O)C4)nc2-c2cccc(C#N)c2)cc(C)n1` [Example 6.46, N-[4-(3-Cyanophenyl)-5-(2,6-dimethyl-4-pyridyl)thiazol-2-yl]-2,2-dioxo-2λ^∧{6}-thia-6-azaspiro[3.3]heptane-6-carboxamide], the pKi in test [1] is 6.95; in test [2], 8.69; in test [3] it was 8.72; in test [4] it was 6.63. Moreover, the pIC50 in the test on human PBMCs is 7.82; in test [5], 6.44; in test [6], 7.42.
Regarding `Cc1cc(-c2sc(NC(=O)N3CCC4(CC3)C(=O)N(C)C(=O)N4C)nc2-c2cccc(C#N)c2)cc(C)n1` [Example 4.28, N-[4-(3-Cyanophenyl)-5-(2,6-dimethyl-4-pyridyl)thiazol-2-yl]-1,3-dimethyl-2,4-dioxo-1,3,8-triazaspiro[4.5]decane-8-carboxamide], the pKi in test [1] was 6.87; in test [2], 9.32; in test [3], 8.62; in test [4] it was 7.11. In addition, the pIC50 in the test on human PBMCs is 8.33; in test [5], 6.17; in test [6] it was 8.00.
On to `Cc1cc(-c2sc(NC(=O)N3CC[S+]([O-])CC3)nc2-c2cccc(C#N)c2)cc(C)n1` [Example 4.24, N-[4-(3-Cyanophenyl)-5-(2,6-dimethyl-4-pyridyl)thiazol-2-yl]-1-oxo-1,4-thiazinane-4-carboxamide], for which the pKi in test [1] is 7.82; in test [2], 9.74; in test [3], 8.62; in test [4], 6.42. Besides, the pIC50 was 8.55 in the test on human PBMCs, 7.10 in test [5] and 7.10 in test [6].
Consider `Cc1cc(-c2sc(NC(=O)N3CCC(C#N)CC3)nc2-c2cccc(C#N)c2)cc(C)n1` [Example 4.1, 4-Cyano-N-[4-(3-cyanophenyl)-5-(2,6-dimethyl-4-pyridyl)thiazol-2-yl]piperidine-1-carboxamide], for which the pKi in test [1] was 7.96; in test [2], 9.96; in test [3], 9.22; in test [4], 6.84. The results for the pIC50 (in the test with human PBMCs; in test [5]; in test [6]) were 9.52, 8.00 and 7.82, respectively.
Turning to `Cc1cc(-c2sc(NC(=O)N3CC4(CCO4)C3)nc2-c2cccc(C#N)c2)cc(C)n1` [Example 6.93, N-[4-(3-Cyanophenyl)-5-(2,6-dimethyl-4-pyridyl)thiazol-2-yl]-1-oxa-6-azaspiro[3.3]heptane-6-carboxamide], the pKi in test [1] is 7.36; in test [2], 9.51; in test [3], 8.82; in test [4] it was 6.79. In addition, the values for the pIC50 (in the test with human PBMCs; in test [5]; in test [6]) were 8.89, 7.30 and 8.05, respectively.
With `Cc1cc(-c2sc(NC(=O)N3CCC(C)(C#N)CC3)nc2-c2cccc(C#N)c2)cc(C)n1` [Example 6, 4-Cyano-N-[4-(3-cyanophenyl)-5-(2,6-dimethyl-4-pyridyl)thiazol-2-yl]-4-methyl-piperidine-1-carboxamide], the pKi is 7.43 in test [1], 9.92 in test [2], 8.96 in test [3] and 6.55 in test [4]. Moreover, the results for the pIC50 (in the test on human PBMCs; in test [5]; in test [6]) were 9.22, 7.15 and 8.05, respectively.
Take `Cc1cc(-c2sc(NC(=O)N3CCC(C)(C#N)CC3)nc2-c2cccc(C#N)c2)cc(CO)n1` [Example 24, 4-Cyano-N-[4-(3-cyanophenyl)-5-[2-(hydroxymethyl)-6-methyl-4-pyridyl]thiazol-2-yl]-4-methyl-piperidine-1-carboxamide]: the pKi is 7.15 in test [1], 9.62 in test [2], 8.57 in test [3] and 6.17 in test [4]. Also, the figures for the pIC50 (in the test with human PBMCs; in test [5]; in test [6]) were 8.80, 7.70 and 7.68, respectively.
On to `Cc1cc(-c2sc(NC(=O)N3CC[C@H](C#N)C3)nc2-c2cccc(C#N)c2)cc(C)n1` [Example 4.8, (3S)-3-Cyano-N-[4-(3-cyanophenyl)-5-(2,6-dimethyl-4-pyridyl)thiazol-2-yl]pyrrolidine-1-carboxamide], for which the pKi is 7.77 in test [1], 9.43 in test [2], 8.82 in test [3] and 6.74 in test [4]. The pIC50 is 8.96 in the test on human PBMCs, 7.40 in test [5] and 7.92 in test [6].
As to `Cc1cc(-c2sc(NC(=O)N3CC(C)(C#N)C3)nc2-c2cccc(C#N)c2)cc(C)n1` [Example 6.7, 3-Cyano-N-[4-(3-cyanophenyl)-5-(2,6-dimethyl-4-pyridyl)thiazol-2-yl]-3-methyl-azetidine-1-carboxamide], the pKi is 7.85 in test [1], 9.96 in test [2], 9.15 in test [3] and 6.55 in test [4]. The pIC50 is 9.10 with human PBMCs, 7.70 in test [5] and 8.15 in test [6].
Turning to `Cc1cc(-c2sc(NC(=O)N3CCC(C#N)(C#N)CC3)nc2-c2cccc(C#N)c2)cc(CO)n1` [Example 9.8], the pKi in test [1] is 7.62; in test [2], 9.43; in test [3], 8.62; in test [4] it was 6.21. The figures for the negative-log IC50 (pIC50) (in the test with human PBMCs; in test [5]; in test [6]) were 9.15, 8.00 and 8.10, respectively.
For `Cc1cc(-c2sc(NC(=O)N3CCC4(CC3)NC(=O)N(C)C4=O)nc2-c2cccc(C#N)c2)cc(C)n1` [Example 6.6, N-[4-(3-Cyanophenyl)-5-(2,6-dimethyl-4-pyridyl)thiazol-2-yl]-3-methyl-2,4-dioxo-1,3,8-triazaspiro[4.5]decane-8-carboxamide], the pKi is 7.09 in test [1], 8.84 in test [2], 8.89 in test [3] and 6.63 in test [4]. Besides, the results for the pIC50 (with human PBMCs; in test [5]; in test [6]) were 8.09, 6.22 and 7.62, respectively.
Consider `Cc1cc(-c2sc(NC(=O)N3CC4(CCOC4)C3)nc2-c2cccc(C#N)c2)cc(C)n1` [Example 6.53, N-[4-(3-Cyanophenyl)-5-(2,6-dimethyl-4-pyridyl)thiazol-2-yl]-6-oxa-2-azaspiro[3.4]octane-2-carboxamide], for which the negative-log Ki (pKi) in test [1] is 6.96; in test [2], 9.57; in test [3] it was 8.80; in test [4], 6.18. Moreover, the pIC50 in the test with human PBMCs was 8.60; in test [5], 6.89; in test [6] it was 7.40.

The values are drawn from US20230293517A1, “ANTAGONIST COMPOUNDS” (AdoRx Therapeutics Limited, priority 2020, published 2023).
